Reference: patent publication US10174029B2, “Pyrimidine-2,4-diamine derivatives for treatment of cancer” (THOMAS HELLEDAYS STIFTELSE FOR MEDICINSK FORSKNING, priority 2012, dated 2019)
pIC50: −log10 of the molar value.

The compounds below were run against MTH1 (Homo sapiens, UniProt P36639) (assay: MTH1 enzymatic assay and IC50 value determination (malachite green)). Details: MTH1 4.8 nM, dGTP 100 μM, 15 minutes at 22° C.; group: between 2 μM and 10 μM.
Format: biochemical
How it was run: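 Malachite green detection of Pi after coupling dGTP hydrolysis to excess E. coli pyrophosphatase; 4.8 nM MTH1, 100 μM dGTP in Tris-acetate buffer with Mg2+ and DTT, 1% DMSO, 15 min at 22 °C. 12-point 1:3 compound series; absorbance at 630 nm; IC50 by four-parameter nonlinear regression.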

pIC50 | SMILES
5.00 to 5.70 | Cc1cccc(-c2cc(N[C@H](C)C3CC3)nc(N)n2)c1C [Example 166, 4-N-[(1R)-1-cyclopropylethyl]-6-(2,3-dimethylphenyl)pyrimidine-2,4-diamine]
5.00 to 5.70 | CC(C)(C)Nc1cc(-c2cccc(C(F)(F)F)c2)nc(N)n1 [Example 20, 4-N-tert-butyl-6-[3-(trifluoromethyl)phenyl]pyrimidine-2,4-diamine]
5.00 to 5.70 | CNc1cc(-c2ccccn2)nc(N)n1 [Example 78, 4-N-methyl-6-(pyridin-2-yl)pyrimidine-2,4-diamine]
5.00 to 5.70 | Cc1cccc(-c2cc(NCCC(=O)N3CCOCC3)nc(N)n2)c1C [Example 277, 3-{[2-amino-6-(2,3-dimethylphenyl)pyrimidin-4-yl]amino}-1-(morpholin-4-yl)propan-1-one]
5.00 to 5.70 | Cc1cccc(-c2cc(N[C@@H]3CN4CCC3CC4)nc(N)n2)c1C [Example 281, 4-N-[(3S)-1-azabicyclo[2.2.2]octan-3-yl]-6-(2,3-dimethylphenyl)pyrimidine-2,4-diamine]
5.00 to 5.70 | CC(C)(C)Nc1cc(-c2ccc(Cl)cc2)nc(N)n1 [Example 14, 4-N-tert-butyl-6-(4-chlorophenyl)pyrimidine-2,4-diamine]
5.00 to 5.70 | COc1ccc(C(CNc2cc(-c3cccc(C)c3C)nc(N)n2)N2CCCC2)cc1 (stereo not drawn) [Example 345, 6-(2,3-Dimethylphenyl)-4-N-[2-(4-methoxyphenyl)-2-(pyrrolidin-1-yl)ethyl]pyrimidine-2,4-diamine]

Same assay, conditions: MTH1 4.8 nM, dGTP 100 μM, 15 minutes at 22° C.; group: less than 200 nM

SMILES | pIC50
CNc1cc(-c2cccc(Cl)c2F)nc(N)n1 [Example 87, 6-(3-chloro-2-fluorophenyl)-4-N-methylpyrimidine-2,4-diamine] | > 6.70
CNc1cc(-c2cc(Cl)ccc2Cl)nc(N)n1 [Example 209, 6-(2,5-dichlorophenyl)-4-N-methylpyrimidine-2,4-diamine] | > 6.70
Nc1nc(NCCc2ccc(Cl)cc2)cc(-c2cccc3ncccc23)n1 [Example 266, 4-N-[2-(4-chlorophenyl)ethyl]-6-(quinolin-5-yl)pyrimidine-2,4-diamine] | > 6.70
Cc1cccc(-c2cc(NCCc3ccncc3)nc(N)n2)c1C [Example 334, 6-(2,3-Dimethylphenyl)-4-N-[2-(pyridin-4-yl)ethyl]pyrimidine-2,4-diamine] | > 6.70
CNc1cc(-c2cc(F)c(F)cc2F)nc(N)n1 [Example 72, 4-N-methyl-6-(2,4,5-trifluorophenyl)pyrimidine-2,4-diamine] | > 6.70
CN(C)S(=O)(=O)c1ccc(CCNc2cc(-c3cccc(Cl)c3Cl)nc(N)n2)cc1 [Example 415, 4-(2-{[2-amino-6-(2,3-dichlorophenyl)pyrimidin-4-yl]amino}ethyl)-N,N-dimethylbenzene-1-sulfonamide] | > 6.70
Nc1nc(NCCc2ccc(S(N)(=O)=O)cc2)cc(-c2cccc(Cl)c2Cl)n1 [Example 296, 4-(2-{[2-amino-6-(2,3-dichlorophenyl)pyrimidin-4-yl]amino}ethyl)benzene-1-sulfonamide] | > 6.70
COc1ccc(-c2cc(NC3CCCC3)nc(N)n2)cc1 [Example 56, 4-N-cyclopentyl-6-(4-methoxyphenyl)pyrimidine-2,4-diamine] | > 6.70
CNc1cc(-c2cc(F)ccc2C)nc(N)n1 [Example 202, 6-(5-fluoro-2-methylphenyl)-4-N-methylpyrimidine-2,4-diamine] | > 6.70
CNc1cc(-c2cn(S(=O)(=O)c3ccc(Cl)cc3)c3ccccc23)nc(N)n1 [Example 144, 6-[1-(4-chlorobenzenesulfonyl)-1H-indol-3-yl]-4-N-methylpyrimidine-2,4-diamine] | > 6.70
COc1ccc2nc(CCNc3cc(-c4cccc(C)c4C)nc(N)n3)[nH]c2c1 [Example 351, 6-(2,3-Dimethylphenyl)-4-N-[2-(6-methoxy-1H-1,3-benzodiazol-2-yl)ethyl]pyrimidine-2,4-diamine] | > 6.70
Cc1cccc(-c2cc(NCCCNS(=O)(=O)c3c(C)nn(C)c3Cl)nc(N)n2)c1C [Example 389, N-(3-{[2-Amino-6-(2,3-dimethylphenyl)pyrimidin-4-yl]amino}propyl)-5-chloro-1,3-dimethyl-1H-pyrazole-4-sulfonamide] | > 6.70
CNc1cc(-c2ccc(C(=O)OC)cc2)nc(N)n1 [Example 103, methyl 4-[2-amino-6-(methylamino)pyrimidin-4-yl]benzoate] | > 6.70
Cc1cccc(-c2cc(NCCCNS(=O)(=O)c3cccc(F)c3)nc(N)n2)c1C [Example 381, N-(3-{[2-Amino-6-(2,3-dimethylphenyl)pyrimidin-4-yl]amino}propyl)-3-fluorobenzene-1-sulfonamide] | > 6.70
CNc1cc(-c2ccc(F)c(C)c2C)nc(N)n1 [Example 260, 6-(4-fluoro-2,3-dimethylphenyl)-4-N-methylpyrimidine-2,4-diamine] | > 6.70
CCNc1cc(-c2cccc(Cl)c2C)nc(N)n1 [Example 245, 6-(3-chloro-2-methylphenyl)-4-N-ethylpyrimidine-2,4-diamine] | > 6.70
CNc1cc(-c2ccc(CN)cc2)nc(N)n1 [Example 329, 6-[4-(Aminomethyl)phenyl]-4-N-methylpyrimidine-2,4-diamine] | > 6.70

Results, then the compound that gave them:

pIC50 | SMILES
> 6.70 | Cc1ccccc1-c1cc(NCCc2ccc(Cl)cc2)nc(N)n1 [Example 264, 4-N-[2-(4-chlorophenyl)ethyl]-6-(2-methylphenyl)pyrimidine-2,4-diamine]
> 6.70 | C=CCNc1cc(-c2cccc(C)c2C)nc(N)n1 [Example 379, 6-(2,3-Dimethylphenyl)-4-N-(prop-2-en-1-yl)pyrimidine-2,4-diamine]
> 6.70 | Cc1cccc(-c2cc(NCCc3ccc(S(=O)(=O)N(C)C)cc3)nc(N)n2)c1C [Example 416, 4-(2-{[2-amino-6-(2,3-dimethylphenyl)pyrimidin-4-yl]amino}ethyl)-N,N-dimethylbenzene-1-sulfonamide]
> 6.70 | Cc1cccc(-c2cc(NC3CC3c3ccc(Cl)cc3)nc(N)n2)c1C (stereo not drawn) [Example 267, 4-N-[2-(4-chlorophenyl)cyclopropyl]-6-(2,3-dimethylphenyl)pyrimidine-2,4-diamine]
> 6.70 | Cc1cccc(-c2cc(NCCc3n[nH]c(-c4ccncc4)n3)nc(N)n2)c1C [Example 349, 6-(2,3-dimethylphenyl)-4-N-{2-[5-(pyridin-4-yl)-1H-1,2,4-triazol-3-yl]ethyl}pyrimidine-2,4-diamine]
> 6.70 | CNc1cc(-c2cc(F)ccc2C(F)(F)F)nc(N)n1 [Example 208, 6-[5-fluoro-2-(trifluoromethyl)phenyl]-4-N-methylpyrimidine-2,4-diamine]
> 6.70 | Cc1ncsc1CCNc1cc(-c2cccc(Cl)c2C)nc(N)n1 [Example 406, 6-(3-chloro-2-methylphenyl)-4-N-[2-(4-methyl-1,3-thiazol-5-yl)ethyl]pyrimidine-2,4-diamine]
> 6.70 | Nc1nc(NC2CCOC2)cc(-c2cccc(Cl)c2Cl)n1 (stereo not drawn) [Example 67, 6-(2,3-dichlorophenyl)-4-N-(oxolan-3-yl)pyrimidine-2,4-diamine]
> 6.70 | Cc1cccc(-c2cc(NCCNc3ccc(C#N)cn3)nc(N)n2)c1C [Example 397, 6-[(2-{[2-Amino-6-(2,3-dimethylphenyl)pyrimidin-4-yl]amino}ethyl)amino]pyridine-3-carbonitrile]
> 6.70 | Nc1nc(NC2CCCC2)cc(-c2cccc(C(F)(F)F)c2)n1 [Example 57, 4-N-cyclopentyl-6-[3-(trifluoromethyl)phenyl]pyrimidine-2,4-diamine]
> 6.70 | C=CC(=O)Nc1ccc(-c2cc(NC)nc(N)n2)cc1 [Example 317, N-{4-[2-Amino-6-(methylamino)pyrimidin-4-yl]phenyl}prop-2-enamide]
> 6.70 | Cc1c(Cl)cccc1-c1cc(NC(C)C)nc(N)n1 [Example 246, 6-(3-chloro-2-methylphenyl)-4-N-(propan-2-yl)pyrimidine-2,4-diamine]
> 6.70 | Cc1c(C#N)cccc1-c1cc(NCCc2ccc(S(N)(=O)=O)cc2)nc(N)n1 [Example 426, 4-(2-{[2-amino-6-(3-cyano-2-methylphenyl)pyrimidin-4-yl]amino}ethyl)benzene-1-sulfonamide]
> 6.70 | Cc1cccc(-c2cc(NCCOc3ccc(C#N)cc3)nc(N)n2)c1C [Example 335, 4-(2-{[2-Amino-6-(2,3-dimethylphenyl)pyrimidin-4-yl]amino}ethoxy)benzonitrile]
> 6.70 | Cc1cccc(-c2cc(NCCc3c[nH]cn3)nc(N)n2)c1C [Example 408, 6-(2,3-dimethylphenyl)-4-N-[2-(1H-imidazol-4-yl)ethyl]pyrimidine-2,4-diamine]
> 6.70 | Cc1cccc(-c2cc(NCc3cnc(-c4ccccc4)s3)nc(N)n2)c1C [Example 411, 6-(2,3-dimethylphenyl)-4-N-[(2-phenyl-1,3-thiazol-5-yl)methyl]pyrimidine-2,4-diamine]
> 6.70 | C#CCNc1cc(-c2cccc(C)c2C)nc(N)n1 [Example 386, 6-(2,3-Dimethylphenyl)-4-N-(prop-2-yn-1-yl)pyrimidine-2,4-diamine]
> 6.70 | CNc1cc(-c2ccc(S(C)(=O)=O)cc2)nc(N)n1 [Example 43, 6-(4-methanesulfonylphenyl)-4-N-methylpyrimidine-2,4-diamine]
> 6.70 | [2H]C([2H])([2H])Nc1cc(-c2cccc(C)c2Cl)nc(N)n1 [Example 422, 6-(2-chloro-3-methylphenyl)-4-N—(^2H3)methylpyrimidine-2,4-diamine]
> 6.70 | CCNc1cc(-c2cn(S(=O)(=O)c3ccc(C)cc3)c3ccccc23)nc(N)n1 [Example 159, 4-N-ethyl-6-[1-(4-methylbenzenesulfonyl)-1H-indol-3-yl]pyrimidine-2,4-diamine]
> 6.70 | CNc1cc(-c2cc3cn[nH]c3cc2C)nc(N)n1 [Example 146, 4-N-methyl-6-(6-methyl-1H-indazol-5-yl)pyrimidine-2,4-diamine]
